{"source": "paper PMC11719397", "about": "“Monophthalates of betulinic acid and related pentacyclic triterpenes inhibit efficiently the SOS-mediated nucleotide exchange and impact PI3K/AKT signaling in oncogenic K-RAS4B proteins” (RSC Advances, 2025)", "key": {"[1]": {"target": "T1, SOS (Homo sapiens, UniProt Q07889)", "T1 sequence (Q07889 1-1333)": "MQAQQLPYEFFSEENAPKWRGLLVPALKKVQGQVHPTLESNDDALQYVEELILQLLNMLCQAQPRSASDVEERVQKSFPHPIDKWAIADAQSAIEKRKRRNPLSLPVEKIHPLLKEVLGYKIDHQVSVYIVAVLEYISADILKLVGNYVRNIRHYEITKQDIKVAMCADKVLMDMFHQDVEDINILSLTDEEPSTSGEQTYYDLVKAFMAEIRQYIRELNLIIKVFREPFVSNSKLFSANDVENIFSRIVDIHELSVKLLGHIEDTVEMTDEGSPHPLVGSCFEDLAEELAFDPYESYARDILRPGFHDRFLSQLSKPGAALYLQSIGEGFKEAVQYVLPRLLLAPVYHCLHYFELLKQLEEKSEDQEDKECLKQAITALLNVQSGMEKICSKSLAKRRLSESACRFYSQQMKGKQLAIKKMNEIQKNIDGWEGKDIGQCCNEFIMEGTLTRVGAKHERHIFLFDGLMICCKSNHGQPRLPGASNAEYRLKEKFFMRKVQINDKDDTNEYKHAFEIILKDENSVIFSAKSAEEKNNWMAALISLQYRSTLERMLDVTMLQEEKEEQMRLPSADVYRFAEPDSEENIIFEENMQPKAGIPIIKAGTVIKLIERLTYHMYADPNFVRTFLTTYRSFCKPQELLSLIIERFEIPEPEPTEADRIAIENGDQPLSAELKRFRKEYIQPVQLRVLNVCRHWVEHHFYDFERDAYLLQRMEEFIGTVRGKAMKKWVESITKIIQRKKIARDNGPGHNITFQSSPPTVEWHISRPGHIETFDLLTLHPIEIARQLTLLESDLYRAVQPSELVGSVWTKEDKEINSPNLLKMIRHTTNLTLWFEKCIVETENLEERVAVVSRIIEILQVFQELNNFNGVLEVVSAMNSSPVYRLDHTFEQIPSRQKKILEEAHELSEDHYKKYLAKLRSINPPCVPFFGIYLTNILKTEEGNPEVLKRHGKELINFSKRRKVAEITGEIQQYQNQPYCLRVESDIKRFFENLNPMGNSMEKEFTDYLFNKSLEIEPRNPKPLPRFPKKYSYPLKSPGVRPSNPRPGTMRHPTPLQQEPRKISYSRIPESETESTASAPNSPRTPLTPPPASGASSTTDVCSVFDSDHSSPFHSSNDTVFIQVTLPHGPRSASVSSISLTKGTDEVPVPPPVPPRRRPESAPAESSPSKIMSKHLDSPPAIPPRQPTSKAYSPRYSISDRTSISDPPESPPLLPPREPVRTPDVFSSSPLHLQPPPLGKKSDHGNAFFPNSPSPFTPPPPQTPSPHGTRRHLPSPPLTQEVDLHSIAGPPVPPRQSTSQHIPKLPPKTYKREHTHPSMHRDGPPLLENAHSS", "assay": "Surface plasmon resonance (SPR), SOS", "assay_type": "binding", "details": "SOS alone"}, "[2]": {"target": "T2, K-RAS4B^G12D (Homo sapiens, UniProt P01116, G12D)", "T2 sequence (P01116 1-188 isoform P01116-2 G12D)": "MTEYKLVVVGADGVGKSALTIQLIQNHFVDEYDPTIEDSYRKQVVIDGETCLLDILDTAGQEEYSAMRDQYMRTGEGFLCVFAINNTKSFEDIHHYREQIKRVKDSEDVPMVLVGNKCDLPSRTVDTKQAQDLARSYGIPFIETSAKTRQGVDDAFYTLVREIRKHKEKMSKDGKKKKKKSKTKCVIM", "assay": "biochemical", "details": "K-RAS4B GDP/GTP exchange; eight data points, at least three determinations"}, "[3]": {"tested_on": "K-RAS4B wild-type", "assay": "Nucleotide exchange assay (SOS1-mediated GDP/GTP exchange, GDP-Glo), K-RAS4B wild-type", "assay_type": "biochemical", "details": "GDP/GTP exchange IC50 of wild-type versus G12D/G12V mutants"}, "[4]": {"target": "K-RAS4B wild-type (Homo sapiens, UniProt P01116)", "sequence (P01116 1-188 isoform P01116-2)": "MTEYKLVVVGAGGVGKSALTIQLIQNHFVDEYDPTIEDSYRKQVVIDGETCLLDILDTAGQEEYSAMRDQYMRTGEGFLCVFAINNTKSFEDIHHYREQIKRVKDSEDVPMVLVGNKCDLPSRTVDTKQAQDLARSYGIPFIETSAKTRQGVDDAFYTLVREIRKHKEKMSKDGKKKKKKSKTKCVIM", "assay": "Nucleotide exchange assay (SOS1-mediated GDP/GTP exchange, GDP-Glo), K-RAS4B wild-type", "assay_type": "biochemical", "details": "K-RAS4B GDP/GTP exchange; eight data points, at least three determinations; (*) single determination"}, "[5]": {"target": "K-RAS4B G12V (Homo sapiens, UniProt P01116, G12V)", "sequence (P01116 1-188 isoform P01116-2 G12V)": "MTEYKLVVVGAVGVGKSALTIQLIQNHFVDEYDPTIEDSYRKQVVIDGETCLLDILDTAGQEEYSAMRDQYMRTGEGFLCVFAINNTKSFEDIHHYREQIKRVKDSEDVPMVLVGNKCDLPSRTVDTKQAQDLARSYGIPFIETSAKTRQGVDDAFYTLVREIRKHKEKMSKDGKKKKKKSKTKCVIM", "assay": "Nucleotide exchange assay (SOS1-mediated GDP/GTP exchange, GDP-Glo), K-RAS4B G12V", "assay_type": "biochemical", "details": "eight data points, at least three determinations, (*) single determination"}, "[6]": {"target": "T2, K-RAS4B^G12D", "assay": "Surface plasmon resonance (SPR), K-RAS4B^G12D", "assay_type": "binding", "details": "K-RAS4B^G12D alone"}}}
{"smiles": "C=C(C)[C@@H]1CC[C@]2(C(=O)O)CC[C@]3(C)[C@H](CC[C@@H]4[C@@]5(C)CC[C@H](OC(=O)CC(C)(C)C(=O)O)C(C)(C)[C@@H]5CC[C@]43C)[C@@H]12", "note": "[Compound 28, bevirimat, reference compound]", "values": [{"measurement": "Kd", "setting": "[1]", "result": "> 1000", "unit": "µM"}, {"measurement": "IC50", "setting": "[2]", "result": "0.59 ± 0.19", "unit": "µM"}, {"measurement": "selectivity factor, mutant versus K-RAS4B^wt", "setting": "[3]", "result": "3–4"}, {"measurement": "IC50", "setting": "[4]", "result": "2.15 ± 0.17", "unit": "µM"}, {"measurement": "IC50", "setting": "[5]", "result": "0.61 ± 0.14", "unit": "µM"}, {"measurement": "Kd", "setting": "[6]", "result": "> 300", "unit": "µM"}]}
